Patent publication US11247990B1, “Bicyclic fused pyridine compounds as inhibitors of TAM kinases” (ARRAY BIOPHARMA INC., priority 2017, dated 2022)
pIC50: −log10 of the molar value.

How the values were obtained:
Settings in all cases: averaged IC50
[1] = biological target: His-tagged recombinant human MER cytoplasmic domain (Homo sapiens (Human), UniProt Q12866); assay: MER Enzyme Assay (LanthaScreen Eu Kinase Binding, TR-FRET)
Method in brief: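 Percent of control, derived from ratiometric TR-FRET emission, was fitted to a 4-parameter logistic curve and IC50 taken at 50 POC. Binding was read after 60 min at 22 °C using Eu-based LanthaScreen technology and recombinant His-tagged MER cytoplasmic domain.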

[2] = biological target: GST-tagged recombinant human TYRO3 kinase domain (Homo sapiens (Human), UniProt Q06418); assay: TYRO3 Enzyme Assay (LanthaScreen Eu Kinase Binding, TR-FRET)
Sequence of GST-tagged recombinant human TYRO3 kinase domain (Q06418 518-790): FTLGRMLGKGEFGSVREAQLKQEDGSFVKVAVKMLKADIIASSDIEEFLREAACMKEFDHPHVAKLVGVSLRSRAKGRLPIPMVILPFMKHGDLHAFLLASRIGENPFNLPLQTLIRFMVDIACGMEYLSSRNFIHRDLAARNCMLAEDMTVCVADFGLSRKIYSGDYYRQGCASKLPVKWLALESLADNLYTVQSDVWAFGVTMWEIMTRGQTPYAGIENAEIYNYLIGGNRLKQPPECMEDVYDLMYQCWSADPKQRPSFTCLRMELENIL
Method in brief: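 LanthaScreen Eu binding (tracer displacement) format read by TR-FRET after 60 min at 22 °C. Emission ratio converted to percent of control; IC50 taken where a 4-parameter logistic fit crosses 50 POC.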

[3] = biological target: His-tagged recombinant human AXL cytoplasmic domain (Homo sapiens (Human), UniProt P30530); assay: AXL Enzyme Assay (LanthaScreen Eu Kinase Binding, TR-FRET)
Sequence of His-tagged recombinant human AXL cytoplasmic domain (P30530 473-894): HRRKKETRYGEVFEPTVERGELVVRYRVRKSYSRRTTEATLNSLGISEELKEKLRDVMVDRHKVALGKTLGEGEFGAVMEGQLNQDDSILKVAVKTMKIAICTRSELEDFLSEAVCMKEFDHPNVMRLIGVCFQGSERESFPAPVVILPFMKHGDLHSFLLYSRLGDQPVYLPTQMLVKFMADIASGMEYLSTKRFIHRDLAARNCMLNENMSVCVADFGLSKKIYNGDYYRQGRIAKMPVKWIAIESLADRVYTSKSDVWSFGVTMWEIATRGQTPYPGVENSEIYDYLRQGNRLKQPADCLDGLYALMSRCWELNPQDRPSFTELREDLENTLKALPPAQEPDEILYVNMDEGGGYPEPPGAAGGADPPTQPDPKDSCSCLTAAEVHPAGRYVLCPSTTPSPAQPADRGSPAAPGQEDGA
Method: Compounds of Formula I were screened for their ability to inhibit AXL kinase using Invitrogen's LanthaScreen™ Eu Kinase Binding technology. […] After a 60-minute incubation at 22° C., the reaction was measured using a PerkinElmer EnVision multimode plate reader via TR-FRET dual wavelength detection, and the percent of control (POC) was calculated using a ratiometric emission factor. […] The POC values are fit to a 4 parameter logistic curve and the IC50 value is point where the curve crosses 50 POC.

Sequence of His-tagged recombinant human MER cytoplasmic domain (Q12866 527-999): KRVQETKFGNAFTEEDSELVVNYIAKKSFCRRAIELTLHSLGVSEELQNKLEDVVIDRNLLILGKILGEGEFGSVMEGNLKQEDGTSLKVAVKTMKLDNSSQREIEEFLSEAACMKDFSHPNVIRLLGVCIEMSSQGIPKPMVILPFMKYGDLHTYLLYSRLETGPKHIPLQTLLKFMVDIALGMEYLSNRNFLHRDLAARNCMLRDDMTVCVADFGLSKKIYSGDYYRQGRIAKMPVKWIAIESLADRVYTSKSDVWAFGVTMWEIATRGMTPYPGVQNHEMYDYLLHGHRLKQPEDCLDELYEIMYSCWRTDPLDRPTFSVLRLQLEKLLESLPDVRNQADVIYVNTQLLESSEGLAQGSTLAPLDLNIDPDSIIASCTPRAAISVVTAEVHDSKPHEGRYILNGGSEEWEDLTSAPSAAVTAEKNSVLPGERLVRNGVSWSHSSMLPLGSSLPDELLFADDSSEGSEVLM

pIC50 [1] | pIC50 [2] | pIC50 [3] | Compound
> 8.00 | 7.00 to 8.00 | > 8.00 | CCNc1cc2c(cn1)c(-c1cnn(C(CO)CO)c1)nn2[C@H]1CC[C@@H](Oc2ccc(F)cc2F)CC1 [Example 414, 2-(4-(1-((1s,4s)-4-(2,4-difluorophenoxy)cyclohexyl)-6-(ethylamino)-1H-pyrazolo[4,3-c]pyridin-3-yl)-1H-pyrazol-1-yl)propane-1,3-diol]
> 8.00 | 7.00 to 8.00 | > 8.00 | CNc1cc2c(cn1)c(-c1cnn(C[C@@H](O)CO)c1)nn2[C@H]1CC[C@@H](Oc2ccccc2C(F)(F)F)CC1 [Example 419, (R)-3-(4-(6-(methylamino)-1-((1s,4S)-4-(2-(trifluoromethyl)phenoxy)-cyclohexyl)-1H-pyrazolo[4,3-c]pyridin-3-yl)-1H-pyrazol-1-yl)propane-1,2-diol]
> 8.00 | 7.00 to 8.00 | > 8.00 | CNc1cc2c(cn1)c(-c1cnn(CC3CCOCC3)c1)nn2[C@H]1CC[C@@H](Oc2nccnc2C)CC1 [Example 215, N-methyl-1-((1s,4s)-4-((3-methylpyrazin-2-yl)oxy)cyclohexyl)-3-(1-((tetrahydro-2H-pyran-4-yl)methyl)-1H-pyrazol-4-yl)-1H-pyrazolo[4,3-c]pyridin-6-amine]
> 8.00 | 7.00 to 8.00 | > 8.00 | CNc1cc2c(cn1)c(-c1cnn(C(C)(C)C#N)c1)nn2[C@H]1CC[C@@H](Oc2cccc(F)c2F)CC1 [Example 369, 2-(4-(1-((1s,4s)-4-(2,3-difluorophenoxy)cyclohexyl)-6-(methylamino)-1H-pyrazolo[4,3-c]pyridin-3-yl)-1H-pyrazol-1-yl)-2-methylpropanenitrile]
> 8.00 | 7.00 to 8.00 | > 8.00 | CCNc1cc2c(cn1)c(-c1cnn(CC(C)(O)CO)c1)nn2[C@H]1CC[C@@H](Oc2nccc(C(F)(F)F)c2F)CC1 (stereo partly drawn) [Example 238, 3-(4-(6-(ethylamino)-1-((1s,4s)-4-((3-fluoro-4-(trifluoromethyl)pyridin-2-yl)oxy)cyclohexyl)-1H-pyrazolo[4,3-c]pyridin-3-yl)-1H-pyrazol-1-yl)-2-methylpropane-1,2-diol]
> 8.00 | > 8.00 | > 8.00 | CCNc1cc2c(cn1)c(N1CCN(C)CC1)nn2[C@H]1CC[C@@H](Oc2nccc(C(F)(F)F)c2F)CC1 [Example 331, N-ethyl-1-((1s,4s)-4((3-fluoro-4-(trifluoromethyl)pyridin-2-yl)oxy)cyclohexyl)-3-(4-methylpiperazin-1-yl)-1H-pyrazolo[4,3-c]pyridin-6-amine]
> 8.00 | > 8.00 | > 8.00 | CCNc1cc2c(cn1)c(N1CCNCC1)nn2[C@H]1CC[C@@H](Oc2nccc(C(F)(F)F)c2F)CC1 [Example 343, N-ethyl-1-((1s,4s)-4((3-fluoro-4-(trifluoromethyl)pyridin-2-yl)oxy)cyclohexyl)-3-(piperazin-1-yl)-1H-pyrazolo[4,3-c]pyridin-6-amine]
> 8.00 | > 8.00 | > 8.00 | CCNc1cc2c(cn1)c(C1CCN(C3CCN(C)CC3)CC1)nn2[C@H]1CC[C@@H](Oc2nccc(C(F)(F)F)c2F)CC1 [Example 328, N-ethyl-1-((1s,4s)-4-((3-fluoro-4-(trifluoromethyl)pyridin-2-yl)oxy)cyclohexyl)-3-(1′-methyl-[1,4′-bipiperidin]-4-yl)-1H-pyrazolo[4,3-c]pyridin-6-amine]
> 8.00 | > 8.00 | > 8.00 | CCNc1cc2c(cn1)c(-c1cnn(C)c1)nn2[C@H]1CC[C@@H](Oc2nccnc2C(F)(F)F)CC1 [Example 194, N-ethyl-3-(1-methyl-1H-pyrazol-4-yl)-1-((1s,4s)-4-((3-(trifluoromethyl)pyrazin-2-yl)oxy)cyclohexyl)-1H-pyrazolo[4,3-c]pyridin-6-amine]
> 8.00 | 7.00 to 8.00 | > 8.00 | CCNc1cc2c(cn1)c(-c1cnn(C[C@H](O)C(C)(C)O)c1)nn2[C@H]1CC[C@@H](Oc2ccccc2F)CC1 [Example 440, (S)-1-(4-(6-(ethylamino)-1-((1s,4R)-4-(2-fluorophenoxy)cyclohexyl)-1H-pyrazolo[4,3-c]pyridin-3-yl)-1H-pyrazol-1-yl)-3-methylbutane-2,3-dioI]
> 8.00 | 7.00 to 8.00 | > 8.00 | CCNc1cc2c(cn1)c(C1CCN(C(=O)C(C)C)CC1)nn2[C@H]1CC[C@@H](Oc2nccc(C(F)(F)F)c2F)CC1 [Example 329, 1-(4-(6-(ethylamino)-1-((1s,4s)-4-((3-fluoro-4-(trifluoromethyl)pyridin-2-yl)oxy)cyclohexyl)-1H-pyrazolo[4,3-c]pyridin-3-yl)piperidin-1-yl)-2-methylpropan-1-one]
> 8.00 | > 8.00 | > 8.00 | CCNc1cc2c(cn1)c(N1CCNCC1)nn2[C@H]1CC[C@@H](Oc2cccc(C(F)(F)F)c2F)CC1 [Example 490, N-ethyl-1-((1s,4s)-4-(2-fluoro-3-(trifluoromethyl)phenoxy)cyclohexyl)-3-(piperazin-1-yl)-1H-pyrazolo[4,3-c]pyridin-6-amine]
> 8.00 | 7.00 to 8.00 | > 8.00 | CNc1cc2c(cn1)c(-c1cnn(C)c1)nn2[C@H]1CC[C@@H](Oc2cccnc2C(C)C)CC1 [Example 165, 1-((1 s,4s)-4-((2-isopropylpyridin-3-yl)oxy)cyclohexyl)-N-methyl(1-methyl-1H-pyrazol-4-yl)-1H-pyrazolo[4,3-c]pyridin-6-amine]
> 8.00 | 7.00 to 8.00 | > 8.00 | CNc1cc2c(cn1)c(-c1cnn(C)c1)nn2[C@@H]1CC[C@H](Oc2ccccc2)[C@@H](O)C1 (racemic) [Example 470, Racemic-(1S,2S,5R)-5-(3-(1-methyl-1H-pyrazol-4-yl)-6-(methylamino)-1H-pyrazolo[4,3-c]pyridin-1-yl)-2-phenoxycyclohexan-1-ol]
> 8.00 | > 8.00 | > 8.00 | CCNc1cc2c(cn1)c(-c1cnn(C[C@@H](O)C(C)(C)O)c1)nn2[C@H]1CC[C@@H](Oc2cn(C)nc2C(F)(F)F)CC1 [Example 247, (R)-1-(4-(6-(ethylamino)-1-((1s,4S)-4-((1-methyl-3-(trifluoromethyl)-1H-pyrazol-4-yl)oxy)cyclohexyl)-1H-pyrazolo[4,3-c]pyridin-3-yl)-1H-pyrazol-1-yl)-3-methylbutane-2,3-diol]
> 8.00 | > 8.00 | > 8.00 | CCNc1cc2c(cn1)c(-c1cnn(C)c1)nn2[C@H]1CC[C@@H](Oc2cn(C)nc2C(F)(F)F)CC1 [Example 279, N-ethyl-3-(1-methyl-1H-pyrazol-4-yl)-1-((1s,4s)-4-((1-methyl-3-(trifluoromethyl)-1H-pyrazol-4-yl)oxy)cyclohexyl)-1H-pyrazolo[4,3-c]pyridin-6-amine]
> 8.00 | 7.00 to 8.00 | > 8.00 | CCNc1cc2c(cn1)c(-c1cnn(C[C@@H](O)C(C)(C)O)c1)nn2[C@H]1CC[C@@H](Oc2ccc(F)cc2F)CC1 [Example 447, (R)-1-(4-(1-((1s,4S)-4-(2,4-difluorophenoxy)cyclohexyl)-6-(ethylamino)-1H-pyrazolo[4,3-c]pyridin-3-yl)-1H-pyrazol-1-yl)-3-methylbutane-2,3-diol]
